Columns and labels:
Assay type in all cases: in vivo
Magnaporthe grisea = experiment: whole plant or invertebrate; conditions: Pyricularia oryzae, foliar, read-out: PYRIOR percent control
Leptosphaeria nodorum = experiment: Glume Blotch of Wheat (LEPTNO), foliar spray, percent disease control; conditions: Parastagonospora nodorum, tested at 75 ppm
Description: The activity of the compounds as effective fungicides was determined by applying the compounds to plants and observing control of fungal disease. The compounds were formulated at 200 ppm in 10 vol. % acetone plus 90 vol. % Triton X water (deionized water 99.99 wt %+0.01 wt % Triton X100), giving a “formulated test compound.” In a few cases, compounds were formulated at 75 or 8.3 ppm rather than 200 ppm in 10 vol. % acetone plus 90 vol. % Triton X water (deionized water 99.99 wt. %+0.01 wt. % Triton X100), giving a “formulated test compound.” Formulated test compounds were applied to plants using a turn table sprayer fitted with two opposing air atomization nozzles which delivered approximately 1500 L/ha of spray volume. All plants were inoculated with spores of the fungus the day after treatment, then incubated in an environment conducive to disease development. Disease severity was evaluated 4 to 15 days later, depending on the disease and the speed of disease development. The following experiments were performed in the laboratory to determine the fungicidal efficacy of the compounds of the invention. […] Each pot contained 3-20 seedlings. These plants were sprayed until wet with the formulated test compound. On the following day, the leaves were inoculated with an aqueous spore suspension of Leptosphaeria nodorum and the plants were kept in high humidity (one day in a dark dew chamber followed by four days in a lighted dew chamber) to permit spores to germinate and infect the leaf. The plants were then transferred to a greenhouse until disease developed on untreated control plants. […] The effectiveness of the test compounds at controlling disease when sprayed on leaves was determined by assessing the severity of disease on treated plants, then converting the severity to percent control based on the level of disease on untreated, inoculated plants. Data are the level (in percent) at which the given disease was controlled when the given compound was applied to the foliage of the plants at 200 ppm. In a few cases (noted in the table) the compound was applied to the plants at 75 ppm or 8.3 ppm.

[1] = system: Puccinia recondita tritici; experiment: Leaf Rust of Wheat (PUCCRT), foliar spray, percent disease control; conditions: tested at 8.3 ppm
Description: The activity of the compounds as effective fungicides was determined by applying the compounds to plants and observing control of fungal disease. The compounds were formulated at 200 ppm in 10 vol. % acetone plus 90 vol. % Triton X water (deionized water 99.99 wt %+0.01 wt % Triton X100), giving a “formulated test compound.” In a few cases, compounds were formulated at 75 or 8.3 ppm rather than 200 ppm in 10 vol. % acetone plus 90 vol. % Triton X water (deionized water 99.99 wt. %+0.01 wt. % Triton X100), giving a “formulated test compound.” Formulated test compounds were applied to plants using a turn table sprayer fitted with two opposing air atomization nozzles which delivered approximately 1500 L/ha of spray volume. All plants were inoculated with spores of the fungus the day after treatment, then incubated in an environment conducive to disease development. Disease severity was evaluated 4 to 15 days later, depending on the disease and the speed of disease development. The following experiments were performed in the laboratory to determine the fungicidal efficacy of the compounds of the invention. […] Each pot contained 3-8 seedlings. These plants were sprayed until wet with the formulated test compounds. On the following day, the leaves were inoculated with an aqueous spore suspension of Puccinia recondita tritici and the plants were kept in high humidity overnight to permit spores to germinate and infect the leaf. The plants were then transferred to a greenhouse until disease developed on untreated control plants. […] The effectiveness of the test compounds at controlling disease when sprayed on leaves was determined by assessing the severity of disease on treated plants, then converting the severity to percent control based on the level of disease on untreated, inoculated plants. Data are the level (in percent) at which the given disease was controlled when the given compound was applied to the foliage of the plants at 200 ppm. In a few cases (noted in the table) the compound was applied to the plants at 75 ppm or 8.3 ppm.

[2] = system: DROSME, AEDSAE, LAPHEG, or HELIVI; experiment: Insecticidal activity, active if any of DROSME, AEDSAE, LAPHEG or HELIVI was controlled at 80% or more; conditions: read-out: >80% mortality on any insect species @ 4000 ppm
Colletotricum lagenarium = experiment: Cucumber Anthracnose (COLLLA), foliar spray, percent disease control; conditions: foliar spray
[3] = system: Pseudoperonospora cubensis; experiment: Cucumber Downy Mildew (PSPECU), foliar spray, percent disease control; conditions: foliar spray, read-out: PSPECU percent control
Cochliobolus sativus = experiment: Spot Blotch of Wheat (COCHSA), foliar spray, percent disease control; conditions: Bipolaris sorokiniana; foliar spray; read-out: COCHSA percent control

Row | Structure (SMILES) | pest or weed control at 8.3 ppm (Magnaporthe grisea) | pest or weed control at 75 ppm (Leptosphaeria nodorum) | pest or weed control at 8.3 ppm [1] | pest or weed control at 4000 ppm [2] | pest or weed control at 200 µg/mL (Colletotricum lagenarium) | pest or weed control at 200 µg/mL [3] | pest or weed control at 200 µg/mL (Cochliobolus sativus)
1 | Clc1csc(Oc2ccc(CCNc3ncnc4nccnc34)cc2)n1 [Compound 31] | 80 to 100% | 0 to 49% | 50 to 79% | – | – | – | –
2 | FC(F)(F)c1cnc2nc(Oc3ccc(CCNc4ncnc5nccnc45)cc3)sc2c1 [Compound 32] | 50 to 79% | 0 to 49% | 50 to 79% | – | – | – | –
3 | COc1ccc(CCNc2ncnc3nccnc23)cc1 [Compound 45] | 80 to 100% | 0 to 49% | 50 to 79% | – | – | – | –
4 | N#Cc1c(Cl)cncc1Oc1cccc(CCNc2ncnc3nccnc23)c1 [Compound 70] | 50 to 79% | 0 to 49% | 50 to 79% | – | – | – | –
5 | Cc1ccnc(Cl)c1Oc1ccc(CCNc2ncnc3nccnc23)cc1 [Compound 98] | 50 to 79% | 0 to 49% | 50 to 79% | – | – | – | –
6 | Cc1ccnc(Oc2ccc(CCNc3ncnc4nccnc34)cc2)c1F [Compound 99] | 80 to 100% | 50 to 79% | 80 to 100% | – | – | – | –
7 | Fc1cc(Oc2ccc(C(F)(F)F)cn2)ccc1CCNc1ncnc2nccnc12 [Compound 105] | 80 to 100% | 80 to 100% | 80 to 100% | – | – | – | –
8 | COc1ccc2c(c1)CC(Nc1ncnc3ncc(C)nc13)C2 (centres unmarked) [Compound 116] | 50 to 79% | 0 to 49% | 0 to 49% | > 80% | – | – | –
9 | Fc1cnc(C(F)(F)F)c(F)c1Oc1ccc(CCNc2ncnc3ncc(Cl)nc23)cc1 [Compound 117] | 80 to 100% | 50 to 79% | 50 to 79% | > 80% | – | – | –
10 | CC(C)(C)OC(=O)c1ccc(Oc2ccc(CCNc3ncnc4nccnc34)cc2)cc1 [Compound 154] | 80 to 100% | 80 to 100% | 80 to 100% | – | – | – | –
11 | COc1cc(CCNc2ncnc3nccnc23)ccc1Oc1cc(C(C)C)ccn1 [Compound 204] | – | – | – | > 80% | 0 to 49% | 80 to 100% | 0 to 49%
12 | FC(F)(F)c1ccnc(Oc2ccc(CCOc3ncnc4nccnc34)cc2)c1 [Compound 206, 4-{2-[4-(4-Trifluoromethylpyridin-2-yloxy)-phenyl]-ethoxy}-pteridine] | – | 0 to 49% | 0 to 49% | – | – | – | –
13 | FC(F)(F)c1ccnc(Oc2ccc(CCNc3ncnc4nccnc34)cc2Br)c1 [Compound 212, {2-[3-bromo-4-(4-trifluoromethylpyridin-2-yloxy)-phenyl]-ethyl}-pteridin-4-yl-amine] | – | – | – | > 80% | 80 to 100% | 80 to 100% | 50 to 79%
14 | COC(=O)c1cc(CCNc2ncnc3nccnc23)ccc1Oc1cc(C(F)(F)F)ccn1 [Compound 213, 5-[2-(Pteridin-4-ylamino)-ethyl]-2-(4-trifluoromethyl-pyridin-2-yloxy)-benzoic acid, methyl ester] | – | – | – | > 80% | 0 to 49% | 80 to 100% | 0 to 49%
15 | Cc1nc(NCCc2ccc(Oc3ncc(C(F)(F)F)cc3F)cc2)c2nc(C)c(C)nc2n1 [Compound 214] | – | – | – | > 80% | 0 to 49% | 0 to 49% | 0 to 49%
16 | Cc1nc(NCCc2ccc(Oc3cc(C(F)(F)F)ccn3)cc2)c2nc(C)c(C)nc2n1 [Compound 215] | – | – | – | > 80% | 0 to 49% | 80 to 100% | 0 to 49%
17 | Fc1cccc(Oc2ccc(CCNc3ncnc4nccnc34)cc2)c1C(F)(F)F [Compound 216] | – | – | – | > 80% | 0 to 49% | 80 to 100% | 0 to 49%
18 | Cc1nc(NCCc2ccc(Oc3cc(C(F)(F)F)ccn3)cc2)c2nc(C)c(C)nc2n1 [Compound 226] | 0 to 49% | 0 to 49% | 0 to 49% | – | – | – | –
19 | FC(F)(F)c1ccnc(Oc2ccc(CCNc3ncnc4nccnc34)cc2C(F)(F)F)c1 [Compound 227] | – | 80 to 100% | 80 to 100% | – | – | – | –
20 | CC1=CSc2cc(CCNc3ncnc4nccnc34)ccc2O1 [Compound 231] | – | – | – | > 80% | 0 to 49% | 0 to 49% | 0 to 49%
21 | FC(F)(F)COc1ccc(CCNc2ncnc3nccnc23)cn1 [Compound 232] | – | – | – | > 80% | 50 to 79% | 80 to 100% | 0 to 49%

Reference: patent US8895568B2, “Compositions comprising substituted pteridines as agrochemicals” (Dow AgroSciences LLC, priority 2009, dated 2014)
